The results in this text go back to patent US10828315B2 (Madrigal Pharmaceuticals, Inc., priority 2013, dated 2020).

In series [1] the test system is human breast cancer cell line BT-474. As to the kind of experiment: Cytotoxicity assay (CellTiter-Glo, 72 h), BT-474. It is filed as cell-based. As to conditions: BT-474, 72 hours, read-out: Cytotoxicity (IC50, nM) BT-474. On the technique in general: In ATP-based viability assays light output follows the ATP content of the culture.
Description: (§1) Cytotoxicity of SDC-TRAP molecules was determined in three cancer cell lines. […] 80 μL of CellTiter-Glo was added to each well, followed by room temperature incubation in the dark for 15 minutes. Cell was determined by luminescence. IC50 was calculated using XLfit™ software.
For series [2], the system named is human urinary bladder cancer cell line RT-112. As to the kind of experiment: Cytotoxicity assay (CellTiter-Glo, 72 h), RT-112. It is filed as cell-based. As to conditions: RT-112, 72 hours, read-out: Cytotoxicity (IC50, nM) RT-112.
Description: as §1
The subject of series [3] is human urinary bladder cancer cell line SW780. The experiment in a line: Cytotoxicity assay (CellTiter-Glo, 72 h), SW780. As to conditions: SW780, 72 hours, read-out: Cytotoxicity (IC50, nM) SW-780. It is filed as cell-based.
Description: as §1
In the next series the test system is HER2. As to the kind of experiment: HER2 degradation assay with BT-474 cell line (Example 12, FACS). It is filed as cell-based, human.
Series [4] in a line: Artificial membrane permeability assay (PAMPA). On the technique in general: The PAMPA barrier holds no transporters, so it reflects passive diffusion.
The nature of series [5]: Mouse plasma stability protocol, up to 1 h (Examples 16-18).
Series [6] can be described thus: SDC-TRAP-0063 PK in male CD-1 mice (IV bolus). The note with it: of monitored analyte. It is filed as in vivo.
Series [7] can be described thus: SDC-TRAP-0063 PK in male SD rats (slow IV bolus). It is filed as in vivo. As to conditions: of monitored analyte.
For series [8] the following is noted: Tissue Distribution Data for SDC-TRAP-0195.
Where [9] appears, read: % Remaining of parent after 1 h incubation in mouse plasma at 37° C. (10 μM).
The mark [10] stands for this setting: dosed SDC-TRAP-0063 50 mpk IV bolus.
Where [11] appears, read: dosed SDC-TRAP-0063 100 mpk IV bolus.
Where [12] appears, read: dosed SDC-TRAP-0063 200 mpk IV bolus.
Setting [13] is: dosed SDC-TRAP-0063 10 mpk slow IV bolus.
The mark [14] stands for this setting: dosed SDC-TRAP-0063 50 mpk slow IV bolus.
Setting [15] is: dosed SDC-TRAP-0063 100 mpk slow IV bolus.
[16] abbreviates: dosed SDC-TRAP-0063 150 mpk slow IV bolus.

The term IC50 denotes the concentration that inhibits the measured activity by half. By Cmax is commonly meant the highest concentration seen after dosing. A word on the Tmax: it is the time from dosing to the highest level. In general, Vss refers to the apparent volume that relates the amount in the body to the concentration in plasma or blood. By Vz is commonly meant a proportionality between amount in the body and measured concentration, not a real space. Low values mean confinement near the circulation, high ones extensive tissue distribution.

Where two headings read alike, the source gives them in different places.

Take `CC(C)c1cc(-c2nnc(O)n2-c2ccc3c(c2)CN(C(=O)c2ccc(CCc4c[nH]c5nc(N)[nH]c(=O)c45)cc2)C3)c(O)cc1O` [SDC-TRAP-0093, 2-amino-5-(4-(5-(3-(2,4-dihydroxy-5-isopropylphenyl)-5-hydroxy-4H-1,2,4-triazol-4-yl)isoindoline-2-carbonyl)phenethyl)-3H-pyrrolo[2,3-d]pyrimidin-4(7H)-one]: the IC50 in series [1] was 1540 nM; in [2], 1290 nM; in series [3], more than 10000 nM.
Compound `CCNC(=O)c1nnc(-c2cc(C(C)C)c(O)cc2O)n1-c1ccc2c(ccn2CCC2CCN(C(=O)Oc3ccc4nc5c(c(CC)c4c3)Cn3c-5cc4c(c3=O)COC(=O)[C@]4(O)CC)CC2)c1` [SDC-TRAP-0205, (S)-4,11-diethyl-4-hydroxy-3,14-dioxo-3,4,12,14-tetrahydro-1H-pyrano[3′,4′:6,7]indolizino[1,2-b]quinolin-9-yl 4-(2-(5-(3-(2,4-dihydroxy-5-isopropylphenyl)-5-(ethylcarbamoyl)-4H-1,2,4-triazol-4-yl)-1H-indol-1-yl)ethyl)piperidine-1-carboxylate] displayed an IC50 in the series on HER2 of 564 nM. The “Mass Retention” value in series [4] (same protocol, second table) came to 10.9%. For the same compound, the “% Remaining (1 h)” value in [5] (setting [9]) is recorded as 58.4%. Besides, in series [5] (mouse plasma, 37° C.), the “% Remaining (1 h, 37° C.)” value is recorded as 58.4%.
Consider `CCNC(=O)c1nnc(-c2cc(C(C)C)c(O)cc2O)n1-c1ccc(CN2CCC(C(=O)N3CCC(C(=O)N[C@H]4C[C@H](O[C@H]5C[C@](O)(C(=O)CO)Cc6c(O)c7c(c(O)c65)C(=O)c5c(OC)cccc5C7=O)O[C@@H](C)[C@H]4O)CC3)CC2)cc1` [SDC-TRAP-0198, 1-(1-(4-(3-(2,4-dihydroxy-5-isopropylphenyl)-5-(ethylcarbamoyl)-4H-1,2,4-triazol-4-yl)benzyl)piperidine-4-carbonyl)-N-((2S,3S,4S,6R)-3-hydroxy-2-methyl-6-(((1S,3S)-3,5, 12-trihydroxy-3-(2-hydroxyacetyl)-10-methoxy-6,11-dioxo-1,2,3,4,6,11-hexahydrotetracen-1-yl)oxy)tetrahydro-2H-pyran-4-yl)piperidine-4-carboxamide], for which the IC50 was more than 10000 nM in the series with HER2 (BT-474 cells, overnight); 786 nM in series [1]; 297 nM in [2]; more than 10000 nM in series [3].
The compound `CCNC(=O)c1nnc(-c2cc(C(C)C)c(O)cc2O)n1-c1ccc2c(ccn2CCC2CCN(C(=O)O[C@]3(CC)C(=O)OCc4c3cc3n(c4=O)Cc4c-3nc3ccc(O)cc3c4CC)CC2)c1` [SDC-TRAP-0208, (S)-4,11-diethyl-9-hydroxy-3,14-dioxo-3,4,12,14-tetrahydro-1H-pyrano[3′,4′: 6,7]indolizino[1,2-b]quinolin-4-yl 4-(2-(5-(3-(2,4-dihydroxy-5-isopropylphenyl)-5-(ethylcarbamoyl)-4H-1,2,4-triazol-4-yl)-1H-indol-1-yl)ethyl)piperidine-1-carboxylate] displayed an IC50 in the series on HER2 of 480 nM. Further, the “Mass Retention” value in series [4] (same protocol, second table) is 25.0%. Besides, in series [5] (setting [9]), the “% Remaining (1 h)” value amounted to 86.1%. The “% Remaining (1 h, 37° C.)” value in series [5] (mouse plasma, 37° C.) came out at 86.1%.
In the series with HER2, `CCc1c2c(nc3ccc(O)cc13)-c1cc3c(c(=O)n1C2)COC(=O)[C@@]3(CC)OC(=O)N1CCC(CCn2ccc3cc(-n4c(O)nnc4-c4cc(C(C)C)c(O)cc4O)ccc32)CC1` [SDC-TRAP-0064, (S)-4,11-diethyl-9-hydroxy-3,14-dioxo-3,4,12,14-tetrahydro-1H-pyrano[3′,4′:6,7]indolizino[1,2-b]quinolin-4-yl 4-(2-(5-(3-(2,4-dihydroxy-5-isopropylphenyl)-5-hydroxy-4H-1,2,4-triazol-4-yl)-1H-indol-1-yl)ethyl)piperidine-1-carboxylate] yielded an IC50 of 1130 nM. The “Mass Retention” value in series [4] (same protocol, second table) turned out to be 48.4%. The “% Remaining (1 h)” value was found to be 91.5% in series [5] (setting [9]) and 91.5% in series [5] (mouse plasma, 37° C., 10 μM). In series [5] (mouse plasma, 37° C.), the “% Remaining (1 h, 37° C.)” value is 91.5%.
Turning to `CCc1c2c(nc3ccc(OC(=O)N4CCC(CCn5ccc6cc(-n7c(O)nnc7-c7cc(C(C)C)c(O)cc7O)ccc65)CC4)cc13)-c1cc3c(c(=O)n1C2)COC(=O)C3(O)CC` (stereo not drawn) [compound 0063], in series [6] (setting [10]), the AUCinf was determined as 237 µM·h, the AUCt worked out at 235 µM·h, the CL stood at 4 mL/min/kg and the peak level (Cmax) was 414 µM. In [6] (setting [10]), the time to peak (Tmax) is 4.98 min, the Vss was 0.122 L/kg, the volume of distribution (Vz) worked out at 0.659 L/kg and the t1/2 came to 114 min. In [6] (setting [11]), this compound yielded an AUCinf of 549 µM·h, an AUCt of 549 µM·h, a CL of 3.45 mL/min/kg and a Cmax of 799 µM. Further, in series [6] (setting [11]), the Tmax came out at 4.98 min, the Vss is listed as 0.241 L/kg, the Vz is 0.747 L/kg and the t1/2 is 150 min. In addition, in series [6] (setting [12]), the AUCinf stood at 2884 µM·h, the AUCt is 2882 µM·h, the CL was determined as 1.32 mL/min/kg and the Cmax was determined as 1620 µM. For the same compound, in [6] (setting [12]), the Tmax is 4.98 min, the distribution volume (Vss) is recorded as 0.173 L/kg, the Vz is on record as 0.307 L/kg and the t1/2 worked out at 162 min. In series [7] (setting [13]), this compound yielded an AUCinf of 38.8 µM·h, an AUCt of 38.8 µM·h, a CL of 4.9 mL/min/kg and a Cmax of 102 µM. Further, in series [7] (setting [13]), the Tmax was found to be 4.98 min, the Vss was determined as 0.0590 L/kg, the volume of distribution (Vz) amounted to 0.441 L/kg and the t1/2 stood at 60 min. In [7] (setting [14]), the AUCinf was 687 µM·h, the AUCt came out at 687 µM·h, the CL is 1.38 mL/min/kg and the Cmax was 659 µM. Besides, in [7] (setting [14]), the Tmax was found to be 4.98 min, the Vss is on record as 0.0640 L/kg, the Vz amounted to 0.0924 L/kg and the t1/2 was found to be 48 min. In series [7] (setting [15]), the AUCinf is 1786 µM·h, the AUCt is 1785 µM·h, the CL worked out at 1.08 mL/min/kg and the maximum concentration (Cmax) was determined as 1210 µM. For the same compound, in series [7] (setting [15]), the Tmax worked out at 4.98 min, the Vss was determined as 0.0654 L/kg, the Vz came to 0.153 L/kg and the t1/2 is 96 min. In series [7] (setting [16]), this compound displayed an AUCinf of 5302 µM·h, an AUCt of 5302 µM·h, a CL of 0.547 mL/min/kg and a Cmax of 1900 µM. For the same compound, in [7] (setting [16]), the Tmax was found to be 30 min, the Vss came to 0.0663 L/kg, the Vz was 0.0855 L/kg and the t1/2 was found to be 108 min.
As to `COc1cccc2c1C(=O)c1c(O)c3c(c(O)c1C2=O)C[C@@](O)(/C(CO)=N/NC(=O)CCn1ccc2cc(-n4c(O)nnc4-c4cc(C(C)C)c(O)cc4O)ccc21)C[C@@H]3O[C@H]1C[C@H](N)[C@H](O)[C@H](C)O1` [SDC-TRAP-0219, (E)-N′-(1-((2S,4S)-4-(((2R,4S,5S,6S)-4-amino-5-hydroxy-6-methyltetrahydro-2H-pyran-2-yl)oxy)-2,5,12-trihydroxy-7-methoxy-6,11-dioxo-1,2,3,4,6,11-hexahydrotetracen-2-yl)-2-hydroxyethylidene)-3-(5-(3-(2,4-dihydroxy-5-isopropylphenyl)-5-hydroxy-4H-1,2,4-triazol-4-yl)-1H-indol-1-yl)propanehydrazide], the values for the IC50 in series [1], in series [2] and in [3] were more than 10000 nM, 973 nM and more than 10000 nM, respectively.
With `CCNC(=O)c1nnc(-c2cc(C(C)C)c(O)cc2O)n1-c1ccc(CN2CCC(C(=O)N3CCN(c4cc(C)c(OC(=O)Nc5cccc6c5CN(C5CCC(=O)NC5=O)C6=O)c(C)c4)CC3)CC2)cc1` (stereo not drawn) [SDC-TRAP-0195, 4-(4-(1-(4-(3-(2,4-dihydroxy-5-isopropylphenyl)-5-(ethylcarbamoyl)-4H-1,2,4-triazol-4-yl)benzyl)piperidine-4-carbonyl)piperazin-1-yl)-2,6-dimethylphenyl (2-(2,6-dioxopiperidin-3-yl)-1-oxoisoindolin-4-yl)carbamate], 49 nM corresponded to half-maximal inhibition with HER2 (IC50). Moreover, the “Plasma Conc.” value in series [8] (Time (h) 0.083) is 1220 µM; in [8] (Time (h) 1), 211 µM; in series [8] (Time (h) 6), 7.23 µM; in series [8] (Time (h) 24) it was 2.03 µM; in series [8] (Time (h) 48), “BQL”. Besides, the “Tumor Conc.” value in series [8] (Time (h) 0.083) was 17.1 nmol/g of tissue; in series [8] (Time (h) 1), 23.0 nmol/g of tissue; in [8] (Time (h) 6) it was 17.1 nmol/g of tissue; in series [8] (Time (h) 24) it was 11.2 nmol/g of tissue; in [8] (Time (h) 48) it was 12.6 nmol/g of tissue. In addition, the “Tumor/Plasma Ratio” value in series [8] (Time (h) 0.083) is 0.0140; in series [8] (Time (h) 1), 0.109; in series [8] (Time (h) 6), 2.36; in [8] (Time (h) 24), 5.50. In series [4] (incubation 5 h, first table), the “Mass Retention” value stood at 27.1%. Besides, the “% Remaining (1 h)” value in series [5] (setting [9]) is 98.4%.
